In article PMC6099238 (Journal of Clinical Pharmacology, 2018):
Like-named read-outs stand apart in the source and are kept apart here. Values belong to the compound of their own block, whether it stands above or below them.

Experiments:
serum uric acid = test: Serum uric acid lowering, phase 1b open-label multiple-dose study; assay type: in vivo, patients with gout; conditions: for serum uric acid: Change From Baseline, Emax (maximum percentage change from baseline in serum uric acid lowering) / serum uric acid: Change From Baseline, Predose / Subjects With Predose Serum Uric Acid <4 mg/dL / Subjects With Predose Serum Uric Acid <5 mg/dL / Subjects With Predose Serum Uric Acid <6 mg/dL: group 2; for serum uric acid: Change From Baseline, Emax (maximum percentage change from baseline in serum uric acid lowering) / serum uric acid: Change From Baseline, Predose: ALLO 300 mg/day alone (day 7), ALLO 300 mg/LESU 600 mg (day 14), LESU 600 mg/day alone (day 21), % (SE); for Subjects With Predose Serum Uric Acid <4 mg/dL / Subjects With Predose Serum Uric Acid <5 mg/dL / Subjects With Predose Serum Uric Acid <6 mg/dL: ALLO 300 mg/day alone (day 7, n = 10), ALLO 300 mg/LESU 600 mg (day 14, n = 10), LESU 600 mg/day alone (day 21, n = 9)
urinary urate excretion = test: Urinary excretion of urate, fractional excretion of urate and xanthine; assay type: in vivo, patients with gout
[1] = assay type: in vivo, patients with gout
URAT1 = conditions: cited from earlier work
[2] = ALLO 300 mg/LESU 400 mg versus ALLO 300 mg alone
[3] = ALLO 300 mg/LESU 600 mg versus ALLO 300 mg alone

Structure (SMILES): Oc1ncnc2[nH]ncc12 [allopurinol]
Emax (serum uric acid lowering) (serum uric acid; allopurinol 300 mg (discussion)): −37% | serum uric acid reduced by (serum uric acid; allopurinol 300 mg/day alone (abstract)): 37% | serum uric acid: Change From Baseline, Emax (maximum percentage change from baseline in serum uric acid lowering) (serum uric acid): −35.1 (2.3) % | serum uric acid: Change From Baseline, Predose (serum uric acid): −28.7 (2.4) % | Subjects With Predose Serum Uric Acid <4 mg/dL (serum uric acid): 0 n (%) | Subjects With Predose Serum Uric Acid <5 mg/dL (serum uric acid): 1 (10) n (%) | Subjects With Predose Serum Uric Acid <6 mg/dL (serum uric acid): 3 (30) n (%) | decrease of 24‐hour urate excretion compared with baseline (urinary urate excretion; allopurinol 300 mg alone): ~35% | Mean 24‐hour urate excretion compared with baseline (urinary urate excretion; allopurinol 300 mg/day alone): –35% | effect on fractional excretion of urate (urinary urate excretion; single agent): no effect | effect on xanthine excretion (urine) (urinary urate excretion; single agent): increased

Structure (SMILES): O=C(O)CSc1nnc(Br)n1-c1ccc(C2CC2)c2ccccc12 [lesinurad]
serum uric acid: Change From Baseline, Emax (maximum percentage change from baseline in serum uric acid lowering) (serum uric acid): −46.7 (5.5) % | serum uric acid: Change From Baseline, Predose (serum uric acid): −37.2 (1.6) % | Subjects With Predose Serum Uric Acid <4 mg/dL (serum uric acid): 0 n (%) | Subjects With Predose Serum Uric Acid <5 mg/dL (serum uric acid): 3 (33) n (%) | Subjects With Predose Serum Uric Acid <6 mg/dL (serum uric acid): 6 (67) n (%) | serum uric acid reduced by (serum uric acid; lesinurad 400 mg/day, added to allopurinol 300 mg/day or alone (abstract)): 44% | serum uric acid reduced by (serum uric acid; lesinurad 600 mg/day, added to allopurinol 300 mg/day or alone (abstract)): 47% | effect on xanthine excretion (urine) (urinary urate excretion; single agent): no significant effect

Oxypurinol AUC0‐24 Geometric Mean Ratio (90%CI) (Combination/Alone) [1, 2]: 74.2 (65.1‐84.7) | Oxypurinol Cmax Geometric Mean Ratio (90%CI) (Combination/Alone) [1, 2]: 79.4 (69.8‐90.3) | Oxypurinol AUC0‐24 Geometric Mean Ratio (90%CI) (Combination/Alone) [1, 3]: 64.7 (61.3‐68.3) | Oxypurinol Cmax Geometric Mean Ratio (90%CI) (Combination/Alone) [1, 3]: 71.7 (67.8‐75.7) | Decrease of oxypurinol plasma concentrations ([1]; during co-administration of lesinurad 400 mg with allopurinol 300 mg): approximately 26% | Decrease of oxypurinol plasma concentrations ([1]; during co-administration of lesinurad 600 mg with allopurinol 300 mg): ~35% | Cmax ([1]; human, plasma, oral, Oxypurinol Cmax, ALLO 300 mg/LESU 600 mg co-administration, geometric mean, n = 10): 9660 ng/mL | Oxypurinol Tmax ([1]; plasma, ALLO 300 mg alone, group 1 (before LESU 400 mg), median (range), n = 10): 4.00 (3.00‐6.00) h | Oxypurinol Cmax ([1]; plasma, ALLO 300 mg/LESU 400 mg co-administration, geometric mean, n = 10): 9.82 (8.66‐11.1) μg/mL
Structure (SMILES): O=c1[nH]c(=O)c2c[nH]nc2[nH]1 [oxypurinol]
transporter substrate (URAT1): substrate of URAT1
